According to article PMC7332124, “Design, One Pot Synthesis and Molecular Docking Studies of Substituted-1H-Pyrido[2,1-b] Quinazolines as Apoptosis-Inducing Anticancer Agents” (Asian Pacific Journal of Cancer Prevention : APJCP, 2020):
Where two headings read alike, the source gives them in different places.

Columns and labels:
[1] = tested on: HFL-1 normal lung fibroblasts; assay: MTT cytotoxicity assay; assay type: cell-based, human; settings: read-out: In vitro Inhibitory Concentration (IC50)
Description: (§1) Various cancer cells were used to screen anticancer activity of newly synthesized compounds. Lung (A549 and NCI-H460), colon (HCT-15 and HT-29), prostate (DU-145) cancer cells maintained in RPMI-1640 media while normal lung fibroblasts cell line (HFL-1) were maintained in F-12 k medium supplemented with 10% fetal bovine serum (FBS) with 1% antibiotic-antimycotic solution (Sigma). Cells were maintained in 5% CO2 with 98% relative humidity at 37 °C in incubator. When 80-90% of confluency is reached, they were sub-cultured using 0.25% trypsin/1 mM EDTA solution for further passage. The compounds in this series were dissolved in DMSO (1 %) to prepare the stock solution of 10 mM. Further dilutions were made accordingly with respective media to obtain the required concentrations.
(§2) MTT assay measures the reduction of MTT (3-(4,5-dimethylthiazol- 2-yl)-2,5-diphenyl tetrazolium bromide) by mitochondrial succinate dehydrogenase enzyme to insoluble formazan crystals. Since reduction of MTT occurs only in metabolically active cells, the level of activity is the measure of the viability of the cells.(Pordeli et al., 2017). Briefly, cells were plated in 96-well plates at a density of 3,000 to 6,000 cells per well in 100 µl of complete medium and allowed to grow overnight. Then the cells were treated with different concentrations of the synthesized compounds and incubated for 72 h. After the treatment, 100 µl of MTT (0.5 mg/ml) was added and incubated at 37 °C for 4 h. Then MTT reagent was aspirated and formazan crystals formed were dissolved by the addition of 200 µL of DMSO for 20 min at 37 °C. The formazan product quantity was measured by using a spectrophotometric microtiter plate reader (Spectra Max, M4 Molecular devices, USA) at 570 nm wavelength(Nekkanti et al., 2017).

NCI-H460 [2] = assay: MTT cytotoxicity assay; assay type: cell-based, human; settings: NCI-H460 lung carcinoma, 72 h, read-out: In vitro Inhibitory Concentration (IC50)
Description: as §1, §2

DU-145 [3] = assay: MTT cytotoxicity assay; assay type: cell-based, human; settings: DU-145 prostate cancer, 72 h, read-out: In vitro Inhibitory Concentration (IC50)
Description: as §1, §2

A549 [4] = assay: MTT cytotoxicity assay; assay type: cell-based, human; settings: A549 adenocarcinoma (lung), MTT, 72 h, read-out: In vitro Inhibitory Concentration (IC50)
Description: as §1, §2

HCT-15 [5] = assay: MTT cytotoxicity assay; assay type: cell-based, human; settings: HCT-15 colon cancer, 72 h, read-out: In vitro Inhibitory Concentration (IC50)
Description: as §1, §2

HT-29 [6] = assay: MTT cytotoxicity assay; assay type: cell-based, human; settings: HT-29 colorectal cancer, 72 h, read-out: In vitro Inhibitory Concentration (IC50)
Description: as §1, §2

[7] = tested on: HFL-1 normal lung fibroblasts; assay: Cell growth inhibition assay (MTT, day 0 subtracted); assay type: cell-based, human; settings: read-out: In vitro Growth Inhibitory Concentration (GI50)
Description: as §1
(§3) Briefly, the cells were seeded on to a 96-well plate in 100 µl of medium. Following 24 h MTT reagent was added in few wells and day 0 absorbance was analyzed, and then cells were treated with compounds and incubated for an additional 72 h. After the treatment, 100 µl of MTT (0.5 mg/ml) was added and incubated at 37 °C for 4 h. Then MTT reagent was suctioned, the insoluble formazan crystals were dissolved in DMSO and formazan product formed is measured at 570 nm wavelength. The day 0 absorbance was subtracted from the 72 h incubated plates and data were plotted as a percentage of untreated control (Dai et al., 2011).

NCI-H460 [8] = assay: as above; assay type: cell-based, human; settings: 72 h, read-out: In vitro Growth Inhibitory Concentration (GI50)
Description: as §1, §3

DU-145 [9] = assay: as above; assay type: cell-based, human; settings: 72 h, read-out: In vitro Growth Inhibitory Concentration (GI50)
Description: as §1, §3

A549 [10] = assay: as above; assay type: cell-based, human; settings: 72 h, read-out: In vitro Growth Inhibitory Concentration (GI50)
Description: as §1, §3

HCT-15 [11] = assay: as above; assay type: cell-based, human; settings: 72 h, read-out: In vitro Growth Inhibitory Concentration (GI50)
Description: as §1, §3

HT-29 [12] = assay: as above; assay type: cell-based, human; settings: 72 h, read-out: In vitro Growth Inhibitory Concentration (GI50)
Description: as §1, §3

Compound	IC50 ([1]; 72 h)	IC50 (NCI-H460 [2])	IC50 (DU-145 [3])	IC50 (A549 [4])	IC50 (HCT-15 [5])	IC50 (HT-29 [6])	GI50 ([7]; 72 h)	IC50 ([1]; Homo sapiens, HFL1, 72 h)	IC50 (NCI-H460 [2]; Homo sapiens)	IC50 (DU-145 [3]; Homo sapiens)	IC50 (A549 [4]; Homo sapiens)	IC50 (HCT-15 [5]; Homo sapiens)	IC50 (HT-29 [6]; Homo sapiens)	melting point	GI50 ([7]; Homo sapiens, HFL1, 72 h)	GI50 (NCI-H460 [8]; Homo sapiens)	GI50 (DU-145 [9]; Homo sapiens)	GI50 (A549 [10]; Homo sapiens)	GI50 (HCT-15 [11]; Homo sapiens)	GI50 (HT-29 [12]; Homo sapiens)	other results
11-(4-trimethoxyphenyl)-2, 3, 4, 11-tetrahydro-1H-pyrido[2,1-b] quinazoline [Compound 4h]	> 30 µM	> 30 µM	> 30 µM	> 30 µM	> 30 µM	> 30 µM	> 30 µM														GI50 (NCI-H460 [8]): > 30 µM; GI50 (DU-145 [9]): > 30 µM; GI50 (A549 [10]): > 30 µM; GI50 (HCT-15 [11]): > 30 µM; GI50 (HT-29 [12]): > 30 µM
C1=CC2=NC3=C(CCCC3)C(c3ccccc3)N2C=C1 (stereo not drawn) [Compound 4a, 11-Phenyl-2,3,4, 11-tetrahydro-1H-pyrido [2,1-b] quinazoline]								> 30 µM	> 30 µM	> 30 µM	> 30 µM	> 30 µM	> 30 µM	154 to 156 °C	> 30 µM	> 30 µM	> 30 µM	> 30 µM	> 30 µM	> 30 µM	
Clc1ccc(C2C3=C(CCCC3)N=C3C=CC=CN32)cc1 (stereo not drawn) [Compound 4b, 11-(4-Chlorophenyl)-2,3,4, 11-tetrahydro-IH-pyrido [2,1-b] quinazoline]	> 30 µM	> 30 µM	> 30 µM	> 30 µM	> 30 µM	> 30 µM	> 30 µM														GI50 (NCI-H460 [8]): > 30 µM; GI50 (DU-145 [9]): > 30 µM; GI50 (A549 [10]): > 30 µM; GI50 (HCT-15 [11]): > 30 µM; GI50 (HT-29 [12]): > 30 µM
O=[N+]([O-])c1ccc(C2C3=C(CCCC3)N=C3C=CC=CN32)cc1 (stereo not drawn) [Compound 4c, 11-(4-Nitrophenyl)-2,3,4, 11-tetrahydro-1H-pyrido[2,1-b]quinazoline]								> 30 µM	> 30 µM	> 30 µM	> 30 µM	> 30 µM	> 30 µM	150 to 151 °C	> 30 µM	> 30 µM	> 30 µM	> 30 µM	> 30 µM	> 30 µM	
COc1ccc(C2C3=C(CCCC3)N=C3C=CC=CN32)cc1 (stereo not drawn) [Compound 4d, 11-(4-Methoxyphenyl)-2,3,4, 11-tetrahydro-1H-pyrido[2,1-b]quinazoline]								> 30 µM	> 30 µM	> 30 µM	> 30 µM	> 30 µM	> 30 µM	88 to 89 °C	> 30 µM	> 30 µM	> 30 µM	> 30 µM	> 30 µM	> 30 µM	
Cc1ccc(C2C3=C(CCCC3)N=C3C=CC=CN32)cc1 (stereo not drawn) [Compound 4e]	85 ± 3.8 µM	43.2 ± 2.58 µM	23.2 ± 0.25 µM	43.1 ± 2.43 µM	40.9 ± 0.55 µM	39.5 ± 1.4 µM	68.6 ± 3.2 µM														GI50 (NCI-H460 [8]): 20.8 ± 1.82 µM; GI50 (DU-145 [9]): 17.7 ± 0.13 µM; GI50 (A549 [10]): 29.5 ± 0.79 µM; GI50 (HCT-15 [11]): 23.44 ± 0.2 µM; GI50 (HT-29 [12]): 15.8 ± 0.97 µM
ClC1=CN2C(=NC3=C(CCCC3)C2c2ccc(Cl)cc2)C=C1 (stereo not drawn) [Compound 4f, 8-Chloro-11-(4-chlorophenyl)-2,3,4, 11-tetrahydro-1H-pyrido [2,1-b] quinazoline]								15.2 ± 0.3 µM	12.6 ± 0.35 µM	16.08 ± 0.14 µM	12.8 ± 1.5 µM	19.3 ± 1.16 µM	15.4 ± 0.11 µM	131 to 132 °C	11.6 ± 0.17 µM	9.62 ± 0.41 µM	11.3 ± 0.34 µM	8.64 ± 0.4 µM	12.9 ± 0.73 µM	11.43 ± 0.06 µM	
Fc1ccc(C2C3=C(CCCC3)N=C3C=CC(Cl)=CN32)cc1 (stereo not drawn) [Compound 4g, 8-chloro-11-(4-fluorophenyl)-2,3,4,11-tetrahydro-1H-pyrido[2,1-b]quinazoline]								63.1 ± 1.79 µM	41.5 ± 1.27 µM	32.9 ± 3.77 µM	25.5 ± 3.98 µM	28.6 ± 1.96 µM	41.3 ± 1.43 µM	88 to 93 °C	41.7 ± 0.98 µM	17.5 ± 2.05 µM	7.37 ± 2.5 µM	9.23 ± 0.93 µM	10 ± 0.97 µM	20.8 ± 3.74 µM	
C1=CC2=NC3=C(CCCC3)C(c3c[nH]c4ccccc34)N2C=C1 (stereo not drawn) [Compound 4j, 11-(1H-indol-3-yl)-2,3,4, 11-tetrahydro-1H-pyrido [2,1-b]quinazoline]								9.31 ± 0.32 µM	9.27 ± 0.54 µM	12.6 ± 0.23 µM	8.98 ± 0.32 µM	10.9 ± 0.4 µM	7.25 ± 0.38 µM	180 to 182 °C	7.67 ± 0.22 µM	7.1 ± 0.19 µM	8.1 ± 0.1 µM	5.79 ± 0.14 µM	7.81 ± 0.65 µM	4.4 ± 0.2 µM	
